Read-outs that look alike come from different tables or passages of the source. Values belong to the compound of their own block, whether it stands above or below them.
Experiments:
NCI-H596 = experiment: cells; design: anti-proliferative effect in NSCLC cell lines, 50% growth inhibition concentration (GI50); conditions: Homo sapiens, NCI-H596
Source text: (§1) The exceptional activity of the inhibitor in EGFR-T790M cells was further confirmed in three-dimensional tumor spheroids derived from NCI-H1975 cells. […] Furthermore, increase of cellular fragments in Sub-G1 phase, chromatin condensation and nuclear fragmentation were observed after treatment with the EGFR-TKI (Supplementary Figure 3A). […] The human NSCLC cell lines A549, Calu-1, Calu-6, NCI-H460, NCI-H292, NCI-H1299, NCI-H1730, NCI-H23, NCI-H3255, NCI-H520, NCI-H522, NCI-H596, HCC-827, SKMES-1, SW1573 and NCI-H1975 and the human epidermoid carcinoma A431 cells were purchased from ATCC (Manassas, VA), and cultured as recommended. 293H cells were purchased from Invitrogen (Carlsbad, CA). PC9, PC9GR4, PC9DR1 and HCC-827 GR5 were a kind gift of Dr. Pasi A. Jänne, Harvard University, Boston, MA [13]. PC9/ER, HCC-827/R1 and H3255/XLR cells are isogenic erlotinib- or XL-647-resistant lines derived from PC9, HCC-827 and NCI-H3255 cells, respectively, as previously described. Additional information on cell cultures procedures is reported in the Supplemental Methods.

NCI-H3255 = experiment: cells; design: anti-proliferative effect in NSCLC cell lines, 50% growth inhibition concentration (GI50); conditions: Homo sapiens, NCI-H3255
Source text: as §1

A549 = experiment: cells; design: anti-proliferative effect in NSCLC cell lines, 50% growth inhibition concentration (GI50); conditions: Homo sapiens, A549
Source text: as §1

NCI-H460 = experiment: cells; design: anti-proliferative effect in NSCLC cell lines, 50% growth inhibition concentration (GI50); conditions: Homo sapiens, NCI-H460
Source text: as §1

SW1573 = experiment: cells; design: anti-proliferative effect in NSCLC cell lines, 50% growth inhibition concentration (GI50); conditions: Homo sapiens, SW1573
Source text: as §1

Calu-1 = experiment: cells; design: anti-proliferative effect in NSCLC cell lines, 50% growth inhibition concentration (GI50); conditions: Homo sapiens, Calu-1
Source text: as §1

PC9 = experiment: cells; design: anti-proliferative effect in NSCLC cell lines, 50% growth inhibition concentration (GI50); conditions: Homo sapiens, PC-9
Source text: as §1

HCC-827 = experiment: cells; design: anti-proliferative effect in NSCLC cell lines, 50% growth inhibition concentration (GI50); conditions: Homo sapiens, HCC827
Source text: as §1

Chk2 = target: T1, Chk2 (Homo sapiens, UniProt O96017); experiment: radiometric HotSpot recombinant kinase assay, […] compound, […] ATP; format: biochemical
T1 construct: gene CHEK2

EGFR [1] = target: EGFR (Homo sapiens, UniProt P00533, DEL746-750/T790M); experiment: EGFR phosphorylation in PC9GR4 cells, […] h treatment; format: cell-based
EGFR-L858R/T790M = EGFR-L858R/T790M (Homo sapiens, UniProt P00533, L858R/T790M); experiment: radiometric HotSpot recombinant kinase assay, […] compound, […] ATP; about […] inhibition; format: biochemical
EGFR [2] = target: EGFR (Homo sapiens, UniProt P00533, T790M); experiment: EGFR phosphorylation in transfected […] cells; format: cell-based
EGFR [3] = target: EGFR (Homo sapiens, UniProt P00533, DEL746-750); experiment: EGFR phosphorylation in PC9 and HCC-827 cells, […] h treatment; format: cell-based
WT-EGFR = WT-EGFR (Homo sapiens, UniProt P00533); experiment: radiometric HotSpot recombinant kinase assay, […] compound, […] ATP; format: biochemical
NCI-H292 = experiment: cells; design: anti-proliferative effect in NSCLC cell lines, 50% growth inhibition concentration (GI50); conditions: Homo sapiens, NCI-H292; read-out: CNX-2006 GI50
Source text: as §1

Calu-6 = experiment: cells; design: anti-proliferative effect in NSCLC cell lines, 50% growth inhibition concentration (GI50); conditions: Homo sapiens, Calu-6; read-out: CNX-2006 GI50
Source text: as §1

NCI-H520 = experiment: cells; design: anti-proliferative effect in NSCLC cell lines, 50% growth inhibition concentration (GI50); conditions: Homo sapiens, NCI-H520; read-out: CNX-2006 GI50
Source text: as §1

SKMES-1 = experiment: cells; design: anti-proliferative effect in NSCLC cell lines, 50% growth inhibition concentration (GI50); conditions: Homo sapiens, SK-MES-1; read-out: CNX-2006 GI50
Source text: as §1

NCI-H522 = experiment: cells; design: anti-proliferative effect in NSCLC cell lines, 50% growth inhibition concentration (GI50); conditions: Homo sapiens, NCI-H522; read-out: CNX-2006 GI50
Source text: as §1

NCI-H1299 = experiment: cells; design: anti-proliferative effect in NSCLC cell lines, 50% growth inhibition concentration (GI50); conditions: Homo sapiens, NCI-H1299; read-out: CNX-2006 GI50
Source text: as §1

NCI-H23 = experiment: cells; design: anti-proliferative effect in NSCLC cell lines, 50% growth inhibition concentration (GI50); conditions: Homo sapiens, NCI-H23; read-out: CNX-2006 GI50
Source text: as §1

NCI-H1703 = experiment: cells; design: anti-proliferative effect in NSCLC cell lines, 50% growth inhibition concentration (GI50); conditions: Homo sapiens, NCI-H1703; read-out: CNX-2006 GI50
Source text: as §1

NCI-H1975 = experiment: cells; design: anti-proliferative effect in NSCLC cell lines, 50% growth inhibition concentration (GI50); conditions: Homo sapiens, NCI-H1975; read-out: CNX-2006 GI50
Source text: as §1

T1 sequence (O96017 whole entry): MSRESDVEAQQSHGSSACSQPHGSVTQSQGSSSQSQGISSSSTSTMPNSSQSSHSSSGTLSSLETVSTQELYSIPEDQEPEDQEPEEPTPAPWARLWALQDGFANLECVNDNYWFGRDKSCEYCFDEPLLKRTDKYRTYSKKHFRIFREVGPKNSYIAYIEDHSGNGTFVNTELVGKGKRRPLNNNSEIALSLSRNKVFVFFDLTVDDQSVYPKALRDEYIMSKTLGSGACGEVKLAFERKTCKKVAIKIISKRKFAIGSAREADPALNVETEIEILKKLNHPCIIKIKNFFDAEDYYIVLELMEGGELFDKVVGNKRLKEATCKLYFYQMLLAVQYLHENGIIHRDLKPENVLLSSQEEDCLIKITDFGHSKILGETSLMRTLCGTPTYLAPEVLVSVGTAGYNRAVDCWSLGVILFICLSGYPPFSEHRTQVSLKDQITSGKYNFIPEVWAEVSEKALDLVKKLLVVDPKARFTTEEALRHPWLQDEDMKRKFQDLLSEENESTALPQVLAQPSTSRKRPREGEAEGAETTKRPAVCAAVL

GI50 (NCI-H596; read-out: CO-1686 GI50): 2000 ± 100 nM
GI50 (NCI-H3255; read-out: CO-1686 GI50): 5 ± 2 nM
GI50 (A549; read-out: CO-1686 GI50): 1200 ± 200 nM
GI50 (NCI-H460; read-out: CO-1686 GI50): 2300 ± 200 nM
GI50 (SW1573; read-out: CO-1686 GI50): 1100 ± 100 nM
GI50 (Calu-1; read-out: CO-1686 GI50): 2000 ± 300 nM
GI50 (PC9; read-out: CO-1686 GI50): 4 ± 2 nM
GI50 (HCC-827; read-out: CO-1686 GI50): 2 ± 1 nM
SMILES: C=CC(=O)Nc1cccc(Nc2nc(Nc3ccc(N4CCN(C(C)=O)CC4)cc3OC)ncc2C(F)(F)F)c1 [CO-1686]

SMILES: C=CC(=O)Nc1cccc(Nc2nc(Nc3ccc(NC4CN(CCF)C4)cc3OC)ncc2C(F)(F)F)c1 [CNX-2006]
inhibition at 1 µM (Chk2): > 50%
IC50 (EGFR [1]): ~61 nM
inhibition at 1 µM (EGFR-L858R/T790M): ~96%
EGFR phosphorylation in transfected 293H cells (EGFR [2]): CNX-2006 effectively inhibited the phosphorylation of the receptor at low nanomolar concentrations
IC50 (EGFR [3]): 55 to 104 nM
inhibition at 1 µM (WT-EGFR): > 50%
GI50 (NCI-H292): 340 ± 40 nM
GI50 (NCI-H596; read-out: CNX-2006 GI50): 4200 ± 300 nM
GI50 (NCI-H3255; read-out: CNX-2006 GI50): 6 ± 2 nM
GI50 (Calu-6): 3200 ± 300 nM
GI50 (A549; read-out: CNX-2006 GI50): 2700 ± 100 nM
GI50 (NCI-H460; read-out: CNX-2006 GI50): 5000 ± 600 nM
GI50 (NCI-H520): 5200 ± 400 nM
GI50 (SW1573; read-out: CNX-2006 GI50): 1900 ± 200 nM
GI50 (SKMES-1): 1400 ± 100 nM
GI50 (NCI-H522): 1900 ± 400 nM
GI50 (NCI-H1299): 4500 ± 500 nM
GI50 (Calu-1; read-out: CNX-2006 GI50): 8000 ± 300 nM
GI50 (NCI-H23): 2400 ± 300 nM
GI50 (PC9; read-out: CNX-2006 GI50): 9 ± 1 nM
GI50 (HCC-827; read-out: CNX-2006 GI50): 3 ± 2 nM
GI50 (NCI-H1703): 4300 ± 300 nM
GI50 (NCI-H1975): 72 ± 2 nM

— paper PMC4767465, “NF-κB drives acquired resistance to a novel mutant-selective EGFR inhibitor” (Oncotarget, 2015)
